# Reference: ChEMBL document CHEMBL1201862, “PubChem BioAssay data set” (2004)
#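 Briefly, cells in 96-well plates were exposed to five compound concentrations for 48 h, and endpoints were estimated by linear interpolation. At the GI50, growth is halved.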 Active and inactive are the calls of the source. No stated cut-off is given here; in the data, active = GI50 up to about 1.1 µM and inactive = higher.
# Assays:
# Assay in all cases: NCI anticancer screen, dose series, 48 h
# ACHN = system: ACHN
# SNB-19 = system: SNB-19
# RXF 393 = system: RXF 393
# SW-620 = system: SW-620
# RXF 631 = system: RXF 631
# UACC-62 = system: UACC-62
# RPMI-8226 = system: RPMI-8226
# 786-0 = system: 786-0
# SK-MEL-2 = system: SK-MEL-2
# MDA-MB-435 = system: MDA-MB-435
# A498 = system: A498
# DMS-114 = system: DMS-114
# OVCAR-5 = system: OVCAR-5
# NCI-H522 = system: NCI-H522
# DLD-1 = system: DLD-1
# HOP-92 = system: HOP-92
# K562 = system: K562
# OVCAR-3 = system: OVCAR-3
# SF-539 = system: SF-539
# COLO 205 = system: COLO 205
# TK-10 = system: TK-10
# SK-OV-3 = system: SK-OV-3
# LXFL 529 = system: LXFL 529
# BT-549 = system: BT-549
# NCI-H226 = system: NCI-H226
# SK-MEL-5 = system: SK-MEL-5
# MOLT-4 = system: MOLT-4
# CAKI-1 = system: CAKI-1
# UACC-257 = system: UACC-257
# M19-MEL = system: M19-MEL
# PC-3 = system: PC-3
# KM12 = system: KM12
# HT-29 = system: HT-29
# U-251 = system: U-251
# LOX IMVI = system: LOX IMVI
# NCI-H23 = system: NCI-H23
# NCI/ADR-RES = system: NCI/ADR-RES
# KM-20L2 = system: KM-20L2
# SNB-75 = system: SNB-75
# MDA-N = system: MDA-N
# MDA-MB-231 = system: MDA-MB-231
# A549 = system: A549
# UO-31 = system: UO-31
# SNB-78 = system: SNB-78
# HCT-15 = system: HCT-15
# NCI-H460 = system: NCI-H460
# HOP-62 = system: HOP-62
# SF-295 = system: SF-295
# HCC 2998 = system: HCC 2998
# Malme-3M = system: Malme-3M
# OVCAR-4 = system: OVCAR-4
# OVCAR-8 = system: OVCAR-8
# SK-MEL-28 = system: SK-MEL-28
# HL-60 = system: HL-60
# DU-145 = system: DU-145
# SN12C = system: SN12C
# DMS-273 = system: DMS-273
# SF-268 = system: SF-268
# HOP-18 = system: HOP-18
# CCRF-CEM = system: CCRF-CEM
# HCT-116 = system: HCT-116
# EKVX = system: EKVX
# IGROV-1 = system: IGROV-1
# M14 = system: M14
# XF498 = system: XF498
# SR = system: SR
smiles,measurement,setting,value
CC(=O)O[C@H]1CCC2[C@@H]3CC[C@]4(C)CC(=O)C=C[C@]4(C)C3CC[C@@]21C (stereo partly drawn),GI50,ACHN,49 µM (inactive)
same,GI50,SNB-19,51.3 µM (inactive)
same,GI50,RXF 393,24.2 µM (inactive)
same,GI50,SW-620,18.3 µM (inactive)
same,GI50,RXF 631,> 50.9 µM (inactive)
same,GI50,UACC-62,15.7 µM (inactive)
same,GI50,RPMI-8226,23 µM (inactive)
same,GI50,786-0,34.4 µM (inactive)
same,GI50,SK-MEL-2,20.8 µM (inactive)
same,GI50,MDA-MB-435,40.6 µM (inactive)
same,GI50,A498,44.7 µM (inactive)
same,GI50,DMS-114,11.3 µM (inactive)
same,GI50,OVCAR-5,> 80.5 µM (inactive)
same,GI50,NCI-H522,24.6 µM (inactive)
same,GI50,DLD-1,22.6 µM (inactive)
same,GI50,HOP-92,48.2 µM (inactive)
same,GI50,K562,20.2 µM (inactive)
same,GI50,OVCAR-3,17.5 µM (inactive)
same,GI50,SF-539,17.7 µM (inactive)
same,GI50,COLO 205,17.2 µM (inactive)
same,GI50,TK-10,54.7 µM (inactive)
same,GI50,SK-OV-3,65.8 µM (inactive)
same,GI50,LXFL 529,14.8 µM (inactive)
same,GI50,BT-549,16.4 µM (inactive)
same,GI50,NCI-H226,25.2 µM (inactive)
same,GI50,SK-MEL-5,14.8 µM (inactive)
same,GI50,MOLT-4,23.2 µM (inactive)
same,GI50,CAKI-1,83.4 µM (inactive)
same,GI50,UACC-257,20.6 µM (inactive)
same,GI50,M19-MEL,18.8 µM (inactive)
same,GI50,PC-3,29.4 µM (inactive)
same,GI50,KM12,20.6 µM (inactive)
same,GI50,HT-29,18.1 µM (inactive)
same,GI50,U-251,17.7 µM (inactive)
same,GI50,LOX IMVI,16.9 µM (inactive)
same,GI50,NCI-H23,21.9 µM (inactive)
same,GI50,NCI/ADR-RES,22 µM (inactive)
same,GI50,KM-20L2,19.4 µM (inactive)
same,GI50,SNB-75,46 µM (inactive)
same,GI50,MDA-N,26.4 µM (inactive)
same,GI50,MDA-MB-231,31.8 µM (inactive)
same,GI50,A549,18.3 µM (inactive)
same,GI50,UO-31,6.3 µM (inactive)
same,GI50,SNB-78,14.9 µM (inactive)
same,GI50,HCT-15,18.7 µM
same,GI50,NCI-H460,17.5 µM (inactive)
same,GI50,HOP-62,50.6 µM (inactive)
same,GI50,SF-295,53.3 µM (inactive)
same,GI50,HCC 2998,45.6 µM (inactive)
same,GI50,Malme-3M,19.4 µM (inactive)
same,GI50,OVCAR-4,16.9 µM (inactive)
same,GI50,OVCAR-8,17.3 µM (inactive)
same,GI50,SK-MEL-28,18.5 µM (inactive)
same,GI50,HL-60,20.4 µM (inactive)
same,GI50,DU-145,> 100 µM (inactive)
same,GI50,SN12C,24.2 µM (inactive)
same,GI50,DMS-273,17.7 µM (inactive)
same,GI50,SF-268,21.2 µM (inactive)
same,GI50,HOP-18,> 38.8 µM (inactive)
same,GI50,CCRF-CEM,20.1 µM (inactive)
same,GI50,HCT-116,16.8 µM (inactive)
same,GI50,EKVX,27.5 µM (inactive)
same,GI50,IGROV-1,23.8 µM (inactive)
same,GI50,M14,19.2 µM (inactive)
C=C[C@@]1(C)CCC2(O)C(CCC3C2(C)CCC[C@@]3(C)COC(=O)CC(=O)OC)C1 (stereo partly drawn),GI50,ACHN,40.1 µM (inactive)
same,GI50,SNB-19,31.6 µM (inactive)
same,GI50,RXF 393,23.7 µM (inactive)
same,GI50,SW-620,17.6 µM (inactive)
same,GI50,RXF 631,19.1 µM (inactive)
same,GI50,UACC-62,17.2 µM (inactive)
same,GI50,RPMI-8226,19.8 µM (inactive)
same,GI50,786-0,35.6 µM (inactive)
same,GI50,OVCAR-5,20.1 µM (inactive)
same,GI50,NCI-H522,16.3 µM (inactive)
same,GI50,DLD-1,17.4 µM (inactive)
same,GI50,K562,22.4 µM (inactive)
same,GI50,OVCAR-3,17.3 µM (inactive)
same,GI50,XF498,21.6 µM (inactive)
same,GI50,SF-539,19.6 µM (inactive)
same,GI50,TK-10,18.7 µM (inactive)
same,GI50,SK-OV-3,> 100 µM (inactive)
same,GI50,LXFL 529,17.3 µM (inactive)
same,GI50,NCI-H226,26.2 µM (inactive)
same,GI50,SK-MEL-5,18 µM (inactive)
same,GI50,MOLT-4,17.2 µM (inactive)
same,GI50,CAKI-1,> 100 µM (inactive)
same,GI50,UACC-257,20.2 µM (inactive)
same,GI50,KM12,18.1 µM (inactive)
same,GI50,HT-29,18.9 µM (inactive)
same,GI50,U-251,17.9 µM (inactive)
same,GI50,LOX IMVI,16.5 µM (inactive)
same,GI50,NCI-H23,20.6 µM (inactive)
same,GI50,KM-20L2,18.7 µM (inactive)
same,GI50,SNB-75,19.9 µM (inactive)
same,GI50,A549,17.6 µM (inactive)
same,GI50,UO-31,22.6 µM (inactive)
same,GI50,SNB-78,26.1 µM (inactive)
same,GI50,HCT-15,18.4 µM
same,GI50,NCI-H460,34.3 µM (inactive)
same,GI50,HOP-62,18.5 µM (inactive)
same,GI50,HCC 2998,61.4 µM (inactive)
same,GI50,Malme-3M,17.7 µM (inactive)
same,GI50,OVCAR-4,17.5 µM (inactive)
same,GI50,OVCAR-8,23.1 µM (inactive)
same,GI50,SK-MEL-28,17 µM (inactive)
same,GI50,HL-60,19.2 µM (inactive)
same,GI50,SN12C,19.9 µM (inactive)
same,GI50,SR,22.2 µM (inactive)
same,GI50,SF-268,22.5 µM (inactive)
same,GI50,CCRF-CEM,32.7 µM (inactive)
same,GI50,HCT-116,18 µM (inactive)
same,GI50,IGROV-1,26.5 µM (inactive)
same,GI50,M14,18.1 µM (inactive)
